# Laboratory results from paper PMC6429585, “Synthesis, Microtubule-Binding Affinity, and Antiproliferative Activity of New Epothilone Analogs and of an EGFR-Targeted Epothilone-Peptide Conjugate” (International Journal of Molecular Sciences, 2019).
# Read-outs that look alike come from different tables or passages of the source.
# Columns and labels:
# [1] = system: A431 cells; test: cells; type: cell-based, human; conditions: 72 h incubation, mean of three experiments ± SD; read-out: IC50 A431
# Procedure: (§1) Experiments were performed in RPMI (SW480 cells) or DMEM (HEK293 and A431 cells) medium (Gibco) supplemented with 2 mM glutamine, 10% fetal bovine serum, 100 IU/mL penicillin, 100 µg/mL streptomycin, and 1 µg/mL amphotericin B (all from Sigma) at 37 °C and 5% CO2. Cells were seeded into 96-well microtiter plates and compounds were added in DMSO in serial dilutions in triplicate. The final DMSO (dimethylsulfoxide) concentration was 0.1%. After 72 h, a WST-1 reagent was added and the absorption was measured at 450 nm with a plate reader after 30 min to 4 h. The percentage of viable cells was calculated based on vehicle-treated cells and was plotted in GraphPadPrism. At least three independent experiments were performed.
# (§2) A431 cells were obtained from CLS. The other cell lines were available in the laboratory. WST-1 was purchased from Roche.
# [2] = system: HEK293 cells; test: cells; type: cell-based, human; conditions: 72 h incubation, mean of three experiments ± SD; read-out: IC50 HEK293
# Procedure: as §1, §2
# [3] = system: SW480 cells; test: cells; type: cell-based, human; conditions: 72 h incubation, mean of three experiments ± SD; read-out: IC50 SW480
# Procedure: as §1, §2
# [4] = Stability in complete cell culture medium (RP-HPLC); type: in vitro ADME; conditions: bovine, complete cell culture medium (RPMI with 10% FBS); 8.6 μM solution in RPMI with 10% FBS, 3 days, 37 °C; read-out: degradation in cell culture medium
# Procedure: The stability of the epothilone-GE11 conjugate 4 in complete cell culture medium was evaluated under conditions resembling those encountered in the cytotoxicity assays. Thus, an 8.6 μM solution of 4 in RPMI with 10% FBS was incubated for 3 days at 37 °C and subsequently analyzed by RP-HPLC. Only minor degradation of 4 (<10%) was observed under these conditions (data not shown).
# Synthesis, Microtubule-Binding Affinity and Antiproliferative Activity of New Epothilone Analogs and of an EGFR-Targeted Epothilone-Peptide
# Fabienne Zdenka Gaugaz, Andrea Chicca, Mariano Redondo, Isabel Barasoain, José Fernando Díaz, and Karl-Heinz Altmann*
# SI.1. EGFR Expression Quantification
# EGFR expression levels were determined by treating cells with 1 µg/ml Cetuximab or human IgG isotype antibody and staining with a secondary Alexa Fluor 647 goat anti-human IgG.[49] The fluorescence was quantified by FACS on a FACSCanto device with a FACSDiva software and later analyzed with FlowJo (Fig. S1). […]
# Figure S1: Relative quantification of EGF receptors by FACS. […]
# The stability of 4 in cell culture medium was evaluated by analytical RP-HPLC. […] The mixture was centrifuged and 10 µL of the supernatant were analyzed by analytical HPLC: H2O with 0.1% TFA (A) / acetonitrile/H2O 8/2 with 0.05% TFA (B). […]
# [5] = Glutathione cleavage assay (reductive disulfide cleavage, RP-HPLC); type: physicochemical; conditions: 10 mM GSH
# Procedure: The reductive cleavage of conjugate 4 was analyzed under conditions mimicking those found in the endosome and the cytoplasm of cancer cells. Endosome-like conditions were assumed to be reproduced by a 10 mM solution of glutathione (GSH) in acetate and phosphate buffer pH 4.9; cytoplasm-like conditions entailed 10 mM GSH in phosphate buffer pH 7.4.
# For cytoplasm-like conditions, 100 µL of a […] solution of conjugate 4 in degassed 100 mM phosphate buffer pH 7.4 were diluted with 400 µL of a degassed phosphate buffer and 500 µL of 20 mM glutathione in 100 mM phosphate buffer pH 7.4. Aliquots of 80 µL were removed at predefined time points, and the reaction was quenched with one volume of 10% metaphosphoric acid, giving a pH of 1 approximately. Fifty microliters of this solution were analyzed by analytical RP-HPLC. The same protocol was used for cleavage under endosome-like conditions, except that the glutathione solution was prepared in a 100 mM acetate buffer at pH 4.8, and the same buffer was also used to dilute the conjugate solution in a 100 mM phosphate buffer at pH 7.4. The final pH of the cleavage solution was 4.9.
# Analytical RP-HPLC: H2O with 0.1% TFA (A)/acetonitrile/water 8/2 with 0.05% TFA (B). Linear gradient from 5% B to 80% B over 30 min. The percentage of remaining conjugate in the solutions was plotted against time (Figure 3). Analysis of the cleavage solutions by LC/MS provided information of the fractions of the various components in the redox mixture.
# Figure 3 Kinetics of glutathione (GSH)-mediated reduction of epothilone-peptide conjugate 4 (173 µM 4, 10 mM GSH, pH 4.9 (endosome-like conditions), triangles, or pH 7.4 (cytoplasm-like conditions), circles). Conjugate 4 was added to the respective GSH solutions as a solution in phosphate buffer pH 7.4 at room temperature, to reach a total concentration of 173 μM. Samples were quenched at different time points with 10% metaphosphoric acid and analyzed by RP-HPLC. […]
# [6] = system: human cancer cells; parameters: method as in PMID 7757983, PMID 8999970; conditions: cited from earlier work
SMILES,IC50 [1] [nM],IC50 [2] [nM],IC50 [3] [nM],"metabolised at 72 h, 8.6 μM [4] [%]","half-life at 173 µM ([5]; acetate and phosphate buffer pH 4.9, read-out: half-life, endosome-like conditions) [s]","residual conjugate 1 min after addition, cytoplasm-like conditions ([5]; phosphate buffer pH 7.4, 1 min)","half-life at 173 µM ([5]; phosphate buffer pH 7.4, read-out: estimated half-life, cytoplasm-like conditions) [s]",IC50 values for most cell lines [6]
CC[C@H](C)[C@H](NC(=O)[C@@H](NC(=O)[C@H](CC(N)=O)NC(=O)[C@H](CCC(N)=O)NC(=O)[C@@H]1CCCN1C(=O)[C@@H](NC(=O)[C@H](Cc1ccc(O)cc1)NC(=O)CNC(=O)[C@H](Cc1ccc(O)cc1)NC(=O)[C@H](Cc1c[nH]c2ccccc12)NC(=O)[C@H](Cc1c[nH]cn1)NC(=O)[C@H](Cc1ccc(O)cc1)NC(=O)[C@@H](N)CSSCCn1c(C)nc2cc([C@@H]3C[C@@H]4C[C@H]4CCC[C@H](C)[C@H](O)[C@@H](C)C(=O)C(C)(C)CCC(=O)O3)ccc21)[C@@H](C)O)C(C)C)C(N)=O [compound 4],74.7 ± 6.65,31.1 ± 6.21,181 ± 25.9,< 10,66,no residual conjugate was detectable,~12,
"C/C(=C\c1csc(C)n1)[C@@H]1C[C@@H]2O[C@]2(C)CCC[C@H](C)[C@H](O)[C@@H](C)C(=O)C(C)(C)[C@@H](O)CC(=O)O1 [Epo B, Epothilone B]",,,,,,,,sub-nanomolar
